Results: patent US20090022686A1, “PHARMACEUTICAL COMPOSITIONS FOR THE TREATMENT OF SYSTEMIC INFLAMMATORY RESPONSE SYNDROME” (Boehringer Ingelheim Pharma GmbH & Co. KG, priority 2002, published 2009)
Marks after values point to notes of the source that are not given here.

Assays:
[1] = test system: Systemic Inflammatory Response Syndrome (SIRS): Intravenous Lipopolysaccharide Stimulation; experiment: Animal model for SIRS: intravenous LPS bolus stimulation in rats (Method 1); type: in vivo; conditions: for IL-6 / TAT: rat blood, ELISA
Protocol: Animal Model for Systemic Inflammatory Response Syndrome (SIRS): Intravenous Lipopolysaccharide Stimulation (Modified According to Isobe et al. Circulation 2001; 104: 1171-1175)
Rats (male, approx. 300 g CrlGlxBrlHan:Wi) were anaesthetised with pentobarbital (60 mg/kg i.p.). To maintain the anaesthetic a pentobarbital drip was set up (22.5 mg/kg/h i.p.). The carotid artery was cannulated for taking blood samples, the left jugular vein was cannulated for administration of the substance and the right jugular vein was cannulated for administering the LPS. The administration of (R)-2-[…]-5-[1-(carboxymethylamino)-1-(pyrrolidinocarbonyl)-ethyl]-benzimidazole (0.1 mg/kg/h) was started at time t=−60 min as a continuous drip and maintained until the end of the experiment. One hour after the start of the infusion of the substance, a single bolus of LPS was administered (lipopolysaccharide of E. coli serotype 0127:B8 Sigma L-3129 5 mg/kg i.v. bolus) at time t=0 min. In order to determine the coagulation and inflammation parameters, blood was taken via the arterial cannulae at times a) before the infusion of placebo or (R)-2-(4-amidinophenylaminomethyl)-1-methyl-5-[1-(carboxymethylamino)-1-(pyrrolidinocarbonyl)-ethyl]-benzimidazole (−60 minutes), b) before administration of the LPS bolus (0 minutes) and c) 240 minutes after the administration of LPS. From the blood samples the TAT complex (thrombin-antithrombin) and interleukin-6 (IL-6) were determined by ELISA as parameters of a systemic inflammatory reaction.

[2] = test system: Systemic Inflammatory Response Syndrome (SIRS): Intravenous Lipopolysaccharide Stimulation; experiment: Animal model for SIRS: continuous intravenous LPS infusion in rats (Method 2); type: in vivo
Protocol: Animal Model for Systemic Inflammatory Response Syndrome (SIRS): Intravenous Lipopolysaccharide Stimulation (Modified According to Aoki et al. Drug Res. 50: 809; 2000 and Yamazaki et al. Blood Coag. Fibrinol. 10: 321; 1999)
Rats (male, approx. 300 g CrlGlxBrlHan:Wi) were anaesthetised with pentobarbital (60 mg/kg i.p.). To maintain the anaesthetic a pentobarbital drip was set up (22.5 mg/kg/h i.p.). The left jugular vein was cannulated for administration of the substance and the right jugular vein was cannulated for administering the LPS. LPS was given as a continuous infusion for 4 hours (lipopolysaccharide of E. coli serotype 0127:B8 Sigma L-3129 7.5 mg/kg/h). (R)-2-(4-amidinophenylaminomethyl)-1-methyl-5-[1-(carboxymethylamino)-1-(pyrrolidinocarbonyl)-ethyl]-benzimidazole (0.1 mg/kg/h) was administered as a continuous infusion (100 μg/kg/h) one hour after the start of the LPS infusion with a total duration of 3 hours. In order to determine the inflammation parameters, blood was taken from the abdominal artery after a total test period of four hours. From the blood samples the TAT complex (thrombin-antithrombin), interleukin-1β (IL-1β), interleukin-6 (IL-6) and the tumour necrosis factor alpha (TNF-alpha) were determined by ELISA as parameters of a systemic inflammatory reaction. Alanine-aminotransferase (ALT) and creatinin served as enzyme parameters for organ damage to the liver and kidneys.

[3] = 0 min (before LPS bolus, 1 h after start of infusion), active substance 100 μg/kg/h
[4] = +240 min after LPS 5 mg/kg i.v. bolus, active substance 100 μg/kg/h
[5] = result in words, LPS bolus, 0.1 mg/kg/h
[6] = −60 min (before start of infusion), LPS + active substance 100 μg/kg/h continuous drip
[7] = LPS 7.5 mg/kg/h × 4 h + 100 μg/kg/h infusion from 1 h after LPS start for 3 h, blood after 4 h, mean ± standard deviation
[8] = result in words, continuous LPS infusion, 0.1 mg/kg/h

With `Cn1c(CNc2ccc(C(=N)N)cc2)nc2cc([C@@](C)(NCC(=O)O)C(=O)N3CCCC3)ccc21` [BIBT 986, (R)-2-(4-amidinophenylaminomethyl)-1-methyl-5-[1-(carboxymethylamino)-1-(pyrrolidinocarbonyl)-ethyl]-benzimidazole] the IL-6 [1, 3] was 0.143 ± 0.083 ng/mL, the TAT [1, 3] was 2.21 ± 0.79 ng/mL and the IL-6 [1, 4] was 43.454 +/− 2.975 * ng/ml. For the same compound, the TAT [1, 4] was 6.52 +/− 1.33 * ng/ml, the “plasma levels of IL-6 versus untreated LPS animals” value [1, 5] was “significant (p<0.02) reduction” and the “plasma levels of the TAT complex versus untreated LPS animals” value [1, 5] was “significantly lower than in the untreated LPS animals (p<0.02) and were within the control range”. For the same compound, the IL-6 [1, 6] was 0.139 ± 0.086 ng/mL, the TAT [1, 6] was 2.33 ± 0.89 ng/mL and the IL-1β [2, 7] was 4036 ± 1000 pg/mL. For the same compound, the IL-6 [2, 7] was 89579 ± 10069 pg/mL, the TNF-alpha [2, 7] was 1003 ± 292 pg/mL and the creatinin ([2]; kidney damage marker, LPS 7.5 mg/kg/h × 4 h + 100 μg/kg/h infusion for 3 h, blood after 4 h, mean ± standard deviation) was 40.1 ± 1.8 µmol/L. The ALT ([2]; liver damage marker, LPS 7.5 mg/kg/h × 4 h + 100 μg/kg/h infusion for 3 h, blood after 4 h, mean ± standard deviation) was 44.2 ± 7.1 U/ml, the “ALT versus untreated control animals” value [2, 8] was “not significantly different from untreated control animals” and the “TAT complex versus LPS-treated animals” value [2, 8] was “significant lowering”. The “creatinin versus untreated control animals” value [2, 8] was “not significantly different from untreated control animals”, the “plasma levels of IL-1β versus LPS-treated animals” value [2, 8] was “significant (p<0.02) lowering” and the “plasma levels of IL-6 versus LPS-treated animals” value [2, 8] was “significant (p<0.02) lowering”. For the same compound, the “plasma levels of TNF alpha versus LPS-treated animals” value [2, 8] was “significant (p<0.02) lowering”.
